Laboratory results taken from the supplement of paper PMC11208160.

Experiment: recombinant barcode read abundance after kanamycin selection (control-corrected) (log10(CPM+1)); higher = more efficient recombination; sequences stand for … in AGTGCAGAGAAAATCGGCCAGTTTTCTCTGCCTGCAGTCCGCATGCCGT…AGATTTATGCAGCGGACTGCCTTTCTCCCAAAGTGATAAACCGGACAGTATCATGGACCGGTTTTCCCGGTAATCCGTATTTGCAAGGTTGGTTTCACT; site = the 11-nt target
Method in brief: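 Targets and IS621 bridge RNA target-binding loops were paired in oligos, each with a promoter, a barcode and the J23119-driven first 104 bridge RNA bases. A vector carrying the remaining 73 bp and a T7-inducible recombinase received these by Gibson cloning, and the pool was co-electroporated into E. coli with a donor plasmid. Duplicate plates contained chloramphenicol/ampicillin LB agar (control) or chloramphenicol/ampicillin/kanamycin with 0.1 mM IPTG. Recombination efficiency comes from averaged, control-corrected counts per million of recombinant-junction barcodes, reported as log10(CPM+1).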
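Note: IS621 recombinase and bridge RNA in Escherichia coli cells.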

Row | Sequence | recombinant barcode read abundance (log10)
1 | GTTGGTCCTTGGGTTCTAACCTGTTGCCT (site GTGGTTCCTAG) | 0.114
2 | GTTGGTCCTTGGGTTCTAACCTGTTGCCT (site GTTGGTCCTAG) | 1.75
3 | GTTTAATCTTGGGTTCTAACCTGTTGCCT (site GTTTAATCTAG) | 0.216
4 | GTTTAATCTTGGGTTCTAACCTGTTGCCT (site GTTTAGTCTAG) | 0.233
5 | GTTTATACTTGGGTTCTAACCTGTTGCCA (site AGAGTAGCTGT) | 0.0898
6 | GTTTATACTTGGGTTCTAACCTGTTGCCA (site GTTTATACTTG) | 0.41
7 | GTTTCACCTTGGGTTCTAACCTGTTGCCT (site GTTACACCTAG) | 0.128
8 | GTTTCACCTTGGGTTCTAACCTGTTGCCT (site GTTTCACCTAG) | 0.491
9 | GTTTCGACTTGGGTTCTAACCTGTTGCCT (site GTTTCGACTAG) | 0.128
10 | GTTTCGACTTGGGTTCTAACCTGTTGCCT (site GTTTCGTCTAG) | 0.173
11 | GTTTCGACTTGGGTTCTAACCTGTTGCTA (site GTTTCGACTTA) | 0.238
12 | GTTTCGACTTGGGTTCTAACCTGTTGCTA (site TCGGATGCTAT) | 0.188
13 | GTTTCGGCTTGGGTTCTAACCTGTTGCCT (site GTTACGGCTAG) | 0.041
14 | GTTTCGGCTTGGGTTCTAACCTGTTGCCT (site GTTCCGGCTAG) | 0.357
15 | GTTTCGGCTTGGGTTCTAACCTGTTGCCT (site GTTGCGGCTAG) | 0.101
16 | GTTTCGGCTTGGGTTCTAACCTGTTGCCT (site GTTTCGGCTAG) | 0.342
17 | GTTTGGCCTTGGGTTCTAACCTGTTGCTT (site GTTTGACCTAA) | 0
18 | GTTTGGCCTTGGGTTCTAACCTGTTGCTT (site GTTTGCCCTAA) | 0.154
19 | GTTTGGCCTTGGGTTCTAACCTGTTGCTT (site GTTTGGCCTAA) | 0.541
20 | GTTTGGCCTTGGGTTCTAACCTGTTGCTT (site GTTTGTCCTAA) | 0.167
21 | TAAAACCCTTGGGTTCTAACCTGTTGCAT (site CCGCGGACTTA) | 0.15
22 | TAAAACCCTTGGGTTCTAACCTGTTGCAT (site TAAAACCCTAT) | 0.713
23 | TAAAAGGCTTGGGTTCTAACCTGTTGCCT (site TAAAAGACTAG) | 0.102
24 | TAAAAGGCTTGGGTTCTAACCTGTTGCCT (site TAAAAGCCTAG) | 0.0288
25 | TAAAAGGCTTGGGTTCTAACCTGTTGCCT (site TAAAAGGCTAG) | 0.0132
26 | TAAAAGGCTTGGGTTCTAACCTGTTGCCT (site TAAAAGTCTAG) | 0.142

Row | Sequence | recombinant barcode read abundance (log10)
27 | TAAAATACTTGGGTTCTAACCTGTTGCCT (site TAAAATACTAG) | 0.1
28 | TAAAATACTTGGGTTCTAACCTGTTGCCT (site TAGATTACTAG) | 0.272
29 | TAACACTCTTGGGTTCTAACCTGTTGCTT (site GAACACTCTCA) | 0.105
30 | TAACACTCTTGGGTTCTAACCTGTTGCTT (site TAACACTCTAA) | 1.51
31 | TAACGTACTTGGGTTCTAACCTGTTGCAT (site TAACATACTAT) | 0.0677
32 | TAACGTACTTGGGTTCTAACCTGTTGCAT (site TAACCTACTAT) | 0.135
33 | TAACGTACTTGGGTTCTAACCTGTTGCAT (site TAACGTACTAT) | 0.696
34 | TAACGTACTTGGGTTCTAACCTGTTGCAT (site TAACTTACTAT) | 0.103
35 | TAACTAGCTTGGGTTCTAACCTGTTGCTA (site GTGTATACTAT) | 0.212
36 | TAACTAGCTTGGGTTCTAACCTGTTGCTA (site TAACTAGCTTA) | 0.141
37 | TAAGGAGCTTGGGTTCTAACCTGTTGCCT (site TAAGGAGCTAG) | 1.39
38 | TAAGGAGCTTGGGTTCTAACCTGTTGCCT (site TAGGGCGCTAG) | 0.0289
39 | TAAGGGACTTGGGTTCTAACCTGTTGCTA (site CGCCCTTCTAG) | 0.239
40 | TAAGGGACTTGGGTTCTAACCTGTTGCTA (site TAAGGGACTTA) | 2.26
41 | TAAGGTACTTGGGTTCTAACCTGTTGCTT (site TAAAGTACTAA) | 0.0963
42 | TAAGGTACTTGGGTTCTAACCTGTTGCTT (site TAACGTACTAA) | 0.151
43 | TAAGGTACTTGGGTTCTAACCTGTTGCTT (site TAAGGTACTAA) | 1.26
44 | TAAGGTACTTGGGTTCTAACCTGTTGCTT (site TAATGTACTAA) | 0.0967
45 | TAAGGTCCTTGGGTTCTAACCTGTTGCAG (site TAAGGTCCTCT) | 2.47
46 | TAAGGTCCTTGGGTTCTAACCTGTTGCAG (site TAGGGTCCTCC) | 0.158
47 | TAAGTCACTTGGGTTCTAACCTGTTGCCT (site GAAGTCACTAG) | 0.0452
48 | TAAGTCACTTGGGTTCTAACCTGTTGCCT (site TAAGTCACTAG) | 1.9
49 | TAAGTGTCTTGGGTTCTAACCTGTTGCCT (site TAAGTGTCTAG) | 2.56
50 | TAAGTGTCTTGGGTTCTAACCTGTTGCCT (site TACGTGTCTAG) | 0.171
51 | TAAGTGTCTTGGGTTCTAACCTGTTGCCT (site TAGGTGTCTAG) | 0.314
52 | TAAGTGTCTTGGGTTCTAACCTGTTGCCT (site TATGTGTCTAG) | 1.03

Row | Sequence | recombinant barcode read abundance (log10)
53 | TAATGAACTTGGGTTCTAACCTGTTGCCT (site TAATGAACTAG) | 0.32
54 | TAATGAACTTGGGTTCTAACCTGTTGCCT (site TAATGTACTAG) | 0.216
55 | TAATGACCTTGGGTTCTAACCTGTTGCAT (site TAATGACCTAA) | 0.0652
56 | TAATGACCTTGGGTTCTAACCTGTTGCAT (site TAATGACCTAT) | 1.67
57 | TAATGGTCTTGGGTTCTAACCTGTTGCAT (site TAATGGTCTAT) | 1.61
58 | TAATGGTCTTGGGTTCTAACCTGTTGCAT (site TAATGTTCTAT) | 0.065
59 | TAATTGCCTTGGGTTCTAACCTGTTGCCT (site TAATTGCCTAG) | 0.645
60 | TAATTGCCTTGGGTTCTAACCTGTTGCCT (site TACTTGCCTAG) | 0.324
61 | TAATTGCCTTGGGTTCTAACCTGTTGCCT (site TAGTTGCCTAG) | 0.474
62 | TAATTGCCTTGGGTTCTAACCTGTTGCCT (site TATTTGCCTAG) | 0.0725
63 | TACAAGCCTTGGGTTCTAACCTGTTGCCT (site TACAAGCCTAG) | 0.338
64 | TACAAGCCTTGGGTTCTAACCTGTTGCCT (site TAGAAGCCTCG) | 0.0913
65 | TACAAGGCTTGGGTTCTAACCTGTTGCGG (site TACAAGGCTCC) | 2.68
66 | TACAAGGCTTGGGTTCTAACCTGTTGCGG (site TACAAGTCTCC) | 0.292
67 | TACACAGCTTGGGTTCTAACCTGTTGCCT (site TAAACAGCTAG) | 0.176
68 | TACACAGCTTGGGTTCTAACCTGTTGCCT (site TACACAGCTAG) | 0.909
69 | TACACAGCTTGGGTTCTAACCTGTTGCCT (site TAGACAGCTAG) | 0.249
70 | TACACAGCTTGGGTTCTAACCTGTTGCCT (site TATACAGCTAG) | 0.149
71 | TACACTACTTGGGTTCTAACCTGTTGCCG (site TACACGACTCC) | 0.0364
72 | TACACTACTTGGGTTCTAACCTGTTGCCG (site TACACTACTCG) | 0.177
73 | TACATCCCTTGGGTTCTAACCTGTTGCCA (site TACATCCCTAG) | 0.5
74 | TACATCCCTTGGGTTCTAACCTGTTGCCA (site TACATCCCTCG) | 0.0234
75 | TACATCCCTTGGGTTCTAACCTGTTGCCA (site TACATCCCTGG) | 0.0594
76 | TACATCCCTTGGGTTCTAACCTGTTGCCA (site TACATCCCTTG) | 0.358
77 | TACATTCCTTGGGTTCTAACCTGTTGCCT (site AACATTCCTAG) | 0.0286
